According to ChEMBL document CHEMBL1133852, “Stereoselective synthesis of 7 alpha- and 7 beta-aminocholestanol as potent fungicidal drugs” (2001):
Converted amounts (≈) assume the structure as drawn.

Key:
Assay type in all cases: functional
[1] = system: Candida albicans; assay: Tested for antifungal activity against Candida albicans CIP 1180-79 after 48 h incubation
[2] = system: Candida albicans; assay: Tested for antifungal activity against azole resistant strain Candida albicans CIP 1760-88 after 48 hr incubation
[3] = system: Saccharomyces cerevisiae; assay: Tested for antifungal activity against Saccharomyces cerevisiae ATCC 28 383 after 48 hr incubation; settings: ATCC 28, 48 h
[4] = system: Candida tropicalis; assay: Tested for antifungal activity against 5-FC resistant strain Candida tropicalis CIP 1745-88 after 48 hr incubation
[5] = system: Candida tropicalis; assay: Tested for antifungal activity against amp B resistant strain Candida tropicalis CIP 1275-81 after 48 hr incubation

Row | Compound | MIC [1] [µg/mL] | MIC [2] [µg/mL] | MIC [3] [µg/mL] | MIC [4] [µg/mL] | MIC [5] [µg/mL]
1 | CC(C)CCC[C@@H](C)C1CC[C@H]2[C@@H]3[C@@H](N)CC4C[C@@H](O)CC[C@]4(C)[C@H]3CC[C@]12C (some centres undefined) | 1.5 (≈ 3.72 µM) | 1.5 (≈ 3.72 µM) | 0.4 (≈ 0.991 µM) | 3.1 (≈ 7.68 µM) | 1.5 (≈ 3.72 µM)
2 | CC(C)CCC[C@@H](C)C1CC[C@H]2[C@@H]3[C@H](N)CC4C[C@@H](O)CC[C@]4(C)[C@H]3CC[C@]12C (some centres undefined) | 6.2 (≈ 15.4 µM) | 3.1 (≈ 7.68 µM) | 3.1 (≈ 7.68 µM) | 3.1 (≈ 7.68 µM) | 1.5 (≈ 3.72 µM)
3 | CC(C)CCCC(C)[C@H]1CC[C@H]2C3C(N)C=C4C[C@@H](O)CCC4(C)[C@H]3CCC12C (some centres undefined) | 2.6 (≈ 6.47 µM) | 2.3 (≈ 5.73 µM) | 2.4 (≈ 5.97 µM) | 3.1 (≈ 7.72 µM) | 1.5 (≈ 3.73 µM)
4 | C[C@@H]1[C@H](O)[C@@H](C)/C=C/C=C/C=C/C=C/C=C/C=C/C=C/[C@H](O[C@@H]2O[C@H](C)[C@@H](O)[C@H](N)[C@@H]2O)C[C@@H]2O[C@](O)(C[C@@H](O)C[C@@H](O)[C@H](O)CC[C@@H](O)C[C@@H](O)CC(=O)O[C@H]1C)C[C@H](O)[C@H]2C(=O)O [AMPHOTERICIN B] | 0.4 (≈ 0.433 µM) |  | 0.3 (≈ 0.325 µM) |  | 12.5 (≈ 13.5 µM)
5 | c1ccc(-c2ccc(C(c3ccccc3)n3ccnc3)cc2)cc1 (centres undefined) [BIFONAZOLE] | 12.5 (≈ 40.3 µM) | 50 (≈ 161 µM) | 6.2 (≈ 20 µM) |  | 
6 | Nc1nc(=O)[nH]cc1F [FLUCYTOSINE] | 50 (≈ 387 µM) |  | 6.2 (≈ 48 µM) | > 100 | 
